In patent US20250304623A1, “PEPTIDES FOR INTRACELLULAR DELIVERY” (UNIVERSIDADE DE SANTIAGO DE COMPOSTELA, priority 2022, published 2025):
*: point of attachment. NHNH2 = NN*

Columns and labels:
Format in all cases: cell-based
[1] = tested on: ARPE19 cells; assay: RLuc pDNA delivery, robotic library screening, ARPE19
[2] = tested on: Hek293 cells; assay: EGFP mRNA delivery, robotic library screening, Hek293
Procedure: Cells were seeded in a 96 well plate the day before the experiment at a concentration of 50,000 cell/mL (100 μL/w) in DMEM+10% FBS+1% Gln-Abt. For robotic library screening, the delivery of EGFP-mRNA (from TriLink, fully substituted with 5-methoxyuridine, capped and polyadenylated; TriLink, CleanCap® EGFP mRNA (5moU), ref. L-7201) in six different cell lines was performed. Amphiphilic molecule stock solutions were prepared in DMSO as described above and diluted in DMEM to afford a range of concentrations. The solutions of EGFP-mRNA/amphiphilic molecule complexes were freshly prepared prior to the transfection experiments. 35 μL of the corresponding amphiphile were added to 10 μL of a solution of EGFP-mRNA at 10 ng/μL in DMEM. The mixture was shaken for 30 min at room temperature before the addition to the cells. The cell medium was aspirated, and cells were washed with PBS twice. Cells were covered with 39 μL of DMEM and 11 μL of the complex's solution were added to the cells and incubated for 4 h (final concentration of peptide=2.5, 5 and 10 μM; final concentration of EGFP-mRNA=25 ng/well). After the incubation, the medium was replaced by 100 μL of fresh DMEM supplemented with 10% FBS. The total EGFP fluorescence was quantified after 72 h in a well plate reader. Amphiphile transfection efficiency was compared and normalized to Lipofectamine® MessengerMax efficiency (value of 1 in Tables 1-5 and 7; double underlined numbers). All experiments were done in triplicate.
(§1) Tables 1-7: RLuc (pDNA) or EGFP (mRNA) expression levels were normalized to Lipofectamine reagents (value=1) and expressed as fold-times signal increase. In the case of siRNA, the siRNA treated cells fluorescence was compared with siMOCK control fluorescence, while Cas9-RNP mediated knockout was measured against the fluorescence of untreated cells. In both siRNA and Cas9-RNP, values are expressed as % fluorescence reduction. Amphiphile concentration was 5 μM in all cases. All experiments were performed in triplicate.
Tables 14-19 show the mean (triplicates) fluorescence intensity measured after the transfection of EGFP mRNA by different amphiphiles at different concentrations in a variety of cell lines. Background fluorescence values, accounted by untreated control cells, were subtracted for processing.

[3] = tested on: ARPE19 cells expressing EGFP; assay: EGFP-targeting siRNA delivery (GFP silencing vs siMOCK), ARPE19
Procedure: To generate an EGFP expressing HeLa cell line, HeLa cells were transfected with EGFP pDNA (pEGFP-C1, Clontech) and stable transfectants were selected with 400 μg/mL of G-418 (Millipore). Green clones were selected by epifluorescence microscopy and tested for EGFP expression stability through several passages. […] All other EGFP-expressing cell lines were obtained in a similar way from parent non-EGFP-expressing cell lines.
Cells expressing EGFP were seeded in a 96 well plate the day before the experiment at a concentration of 50,000 cell/mL (100 μL/w) in DMEM+10% FBS+1% Gln-Abt. For robotic library screening, the delivery of an EGFP-targeting siRNA (EGFP: enhanced green fluorescent protein, Ambion® Silencer® GFP Positive Control siRNA (siGFP) (AM4626)) in six different cell lines expressing EGFP was performed. […] The mixture was shaken for 30 min at room temperature (rt) before the addition to the cells. The cell medium was aspirated, and cells were washed twice with PBS. Finally, 50 μL of the solution of siRNA/amphiphile complexes were added to the cells and incubated for 4 h. After transfection, the medium was replaced by 100 μL of fresh DMEM supplemented with 10% FBS. The fluorescence knockdown was quantified after 72 h in a plate reader, by comparison with cells transfected with a non-targeting siRNA control (siMOCK, Silencer™ Negative Control No. 1 siRNA (siMOCK) (AM4611)). EGFP knockdown was compared with Lipofectamine® RNAiMAX silencing efficiency (30-60% depending on cell line, defined with a numeric value in the below tables). All experiments were done in triplicate.
as §1
Tables 20-25 show the mean (triplicates) percentage of GFP-silencing, accounted by fluorescence intensity decrease relative to a non-targeting siRNA (siMOCK) control, measured after the transfection of siRNA by different amphiphiles at different concentrations in a variety of cell lines. Background values, accounted by untreated control cells, were subtracted for processing.

Row | Substance | mean luminescent intensity (RLuc pDNA) ([1]; Dodecanal, 5 μM) | mean luminescent intensity (RLuc pDNA) ([1]; Myristoleyl, 5 μM) | mean luminescent intensity (RLuc pDNA) ([1]; Myristoleyl, 10 μM) | mean luminescent intensity (RLuc pDNA) ([1]; Myristoleyl, 15 μM) | mean luminescent intensity (RLuc pDNA) ([1]; Oleyl, 10 μM) | mean luminescent intensity (RLuc pDNA) ([1]; Oleyl, 15 μM) | mean luminescent intensity (RLuc pDNA) ([1]; Palmitoleyl, 5 μM) | mean luminescent intensity (RLuc pDNA) ([1]; Petroselinyl, 5 μM) | mean luminescent intensity (RLuc pDNA) ([1]; Petroselinyl, 15 μM) | mean fluorescence intensity (EGFP mRNA) ([2]; Dodecanal, 10 μM) | mean fluorescence intensity (EGFP mRNA) ([2]; Oleyl, 2.5 μM) | mean fluorescence intensity (EGFP mRNA) ([2]; Oleyl, 5 μM) | mean fluorescence intensity (EGFP mRNA) ([2]; Petroselinyl, 2.5 μM) | mean fluorescence intensity (EGFP mRNA) ([2]; Petroselinyl, 5 μM) | mean fluorescence intensity (EGFP mRNA) ([2]; Petroselinyl, 10 μM) | percentage of GFP-silencing relative to siMOCK ([3]; Dodecanal, 5 μM) | percentage of GFP-silencing relative to siMOCK ([3]; Dodecanal, 10 μM) | percentage of GFP-silencing relative to siMOCK ([3]; Dodecanal, 15 μM) | percentage of GFP-silencing relative to siMOCK ([3]; Palmitoleyl, 10 μM) | percentage of GFP-silencing relative to siMOCK ([3]; Petroselinyl, 10 μM) | other results
1 | Ac-RRLK*RLK*RRLK*RL-NH2 [Peptide 13.3] | 2557 RLU | 6819 RLU | 3064 RLU | −316 RLU | 957 RLU | 1379 RLU | 13194 RLU | 1458 RLU | 5730 RLU | 695 | 1384 | 853 | 768 | 1046 | 964 | 29% | 51% | 37% | 11% | 13% | mean luminescent intensity (RLuc pDNA) ([1]; Oleyl, 5 μM): 1946 RLU; mean luminescent intensity (RLuc pDNA) ([1]; Petroselinyl, 10 μM): 35316 RLU; mean fluorescence intensity (EGFP mRNA) ([2]; Myristoleyl, 2.5 μM): 1316; mean fluorescence intensity (EGFP mRNA) ([2]; Myristoleyl, 5 μM): 1229; mean fluorescence intensity (EGFP mRNA) ([2]; Myristoleyl, 10 μM): 889; percentage of GFP-silencing relative to siMOCK ([3]; Petroselinyl, 5 μM): 11%; percentage of GFP-silencing relative to siMOCK ([3]; Petroselinyl, 15 μM): −42%
2 | Ac-RRHK*RLK*RRLK*RL-NH2 (Ac-RRHK(NHNH2)RLK(NHNH2)RRLK(NHNH2)RL-NH2; not fully specified; printed as Ac-RRHK*RLK*RRLK*RL-NH2; also: K*4,K*7,K*11: native or modified lysine (ε-amide to a linker)) [13(Leu-His)] |  | 6946 RLU | 72 RLU | 102 RLU |  |  | 8615 RLU | 4661 RLU |  |  |  |  | 629 | −150 | −168 | 27% | 31% | 41% | 26% | 34% | mean fluorescence intensity (EGFP mRNA) ([2]; Palmitoleyl, 2.5 μM): 4730; mean fluorescence intensity (EGFP mRNA) ([2]; Palmitoleyl, 5 μM): 1141; percentage of GFP-silencing relative to siMOCK ([3]; Myristoleyl, 10 μM): 25%; percentage of GFP-silencing relative to siMOCK ([3]; Myristoleyl, 15 μM): 0%; percentage of GFP-silencing relative to siMOCK ([3]; Oleyl, 10 μM): 26%; percentage of GFP-silencing relative to siMOCK ([3]; Oleyl, 15 μM): 15%; percentage of GFP-silencing relative to siMOCK ([3]; Palmitoleyl, 5 μM): 46%; percentage of GFP-silencing relative to siMOCK ([3]; Palmitoleyl, 15 μM): 24%; percentage of GFP-silencing relative to siMOCK ([3]; Petroselinyl, 15 μM): 13%
3 | Ac-RRLK*RLLRRLK*RLK*RRL-NH2 (Ac-RRLK(NHNH2)RLLRRLK(NHNH2)RLK(NHNH2)RRL-NH2; not fully specified; printed as Ac-RRLK*RLLRRLK*RLK*RRL-NH2; also: K*4,K*11,K*14: native or modified lysine (ε-amide to a linker)) [Peptide 17.3] | 411 RLU | −148 RLU | −514 RLU | −339 RLU | 822 RLU | 1043 RLU | 7062 RLU | 5399 RLU | 398 RLU |  |  |  |  |  |  | 29% | 14% | 22% | 24% | 20% | mean luminescent intensity (RLuc pDNA) ([1]; Dodecanal, 10 μM): 617 RLU; mean luminescent intensity (RLuc pDNA) ([1]; Dodecanal, 15 μM): 1217 RLU; mean luminescent intensity (RLuc pDNA) ([1]; Palmitoleyl, 15 μM): 413 RLU; percentage of GFP-silencing relative to siMOCK ([3]; Myristoleyl, 5 μM): 43%; percentage of GFP-silencing relative to siMOCK ([3]; Myristoleyl, 15 μM): −5%; percentage of GFP-silencing relative to siMOCK ([3]; Oleyl, 10 μM): 22%; percentage of GFP-silencing relative to siMOCK ([3]; Palmitoleyl, 5 μM): 36%; percentage of GFP-silencing relative to siMOCK ([3]; Palmitoleyl, 15 μM): −4%; percentage of GFP-silencing relative to siMOCK ([3]; Petroselinyl, 5 μM): 36%
4 | Ac-RK*LRK*K*L-NH2 (Ac-RK(NHNH2)LRK(NHNH2)K(NHNH2)L-NH2; not fully specified; printed as Ac-RK*LRK*K*L-NH2; also: K*2,K*5,K*6: native or modified lysine (ε-amide to a linker)) [Peptide 7.3] | 661 RLU | −209 RLU | −262 RLU | −315 RLU |  |  | 344 RLU | 22197 RLU | 7692 RLU | 2056 | 3452 | 1414 | 9200 | 8731 | 476 | 15% | 35% | 45% |  |  | mean luminescent intensity (RLuc pDNA) ([1]; Dodecanal, 10 μM): 458 RLU; mean luminescent intensity (RLuc pDNA) ([1]; Dodecanal, 15 μM): 558 RLU; mean luminescent intensity (RLuc pDNA) ([1]; Petroselinyl, 10 μM): 31833 RLU; mean fluorescence intensity (EGFP mRNA) ([2]; Dodecanal, 2.5 μM): 9114; mean fluorescence intensity (EGFP mRNA) ([2]; Dodecanal, 5 μM): 17096; mean fluorescence intensity (EGFP mRNA) ([2]; Myristoleyl, 2.5 μM): 11081; mean fluorescence intensity (EGFP mRNA) ([2]; Myristoleyl, 5 μM): 2907; mean fluorescence intensity (EGFP mRNA) ([2]; Myristoleyl, 10 μM): 982; mean fluorescence intensity (EGFP mRNA) ([2]; Oleyl, 10 μM): 805; mean fluorescence intensity (EGFP mRNA) ([2]; Palmitoleyl, 2.5 μM): 4120; percentage of GFP-silencing relative to siMOCK ([3]; Palmitoleyl, 15 μM): −5%
5 | Ac-RRLK*RLLRRLK*RL-NH2 (Ac-RRLK(NHNH2)RLLRRLK(NHNH2)RL-NH2; not fully specified; printed as Ac-RRLK*RLLRRLK*RL-NH2; also: K*4,K*11: native or modified lysine (ε-amide to a linker)) [Peptide 13.2] |  |  |  |  | 499 RLU | 641 RLU |  |  |  | 520 | 955 | 666 |  |  |  |  |  |  |  |  | mean luminescent intensity (RLuc pDNA) ([1]; Oleyl, 5 μM): 1077 RLU; mean fluorescence intensity (EGFP mRNA) ([2]; Dodecanal, 5 μM): 678; mean fluorescence intensity (EGFP mRNA) ([2]; Oleyl, 10 μM): 791; percentage of GFP-silencing relative to siMOCK ([3]; Oleyl, 10 μM): 22%; percentage of GFP-silencing relative to siMOCK ([3]; Oleyl, 15 μM): 1%
6 | Ac-RK*LRRLLRK*-NH2 (Ac-RK(NHNH2)LRRLLRK(NHNH2)-NH2; not fully specified; printed as Ac-RK*LRRLLRK*-NH2; also: K*2,K*9: native or modified lysine (ε-amide to a linker)) [Peptide 9.2] |  | −374 RLU | −528 RLU | −547 RLU |  |  |  |  |  |  |  |  |  |  |  | 13% | 34% | 30% |  |  | percentage of GFP-silencing relative to siMOCK ([3]; Myristoleyl, 5 μM): 24%
